Data from publication PMC10899635, “Q586B2 is a crucial virulence factor during the early stages of Trypanosoma brucei infection that is conserved amongst trypanosomatids” (Nature Communications, 2024).

Assays:
[1] = biological target: T1, rmMIF (Mus musculus, UniProt P34884); experiment: dopachrome methyl ester tautomerase assay, OD475 nm; format: biochemical; settings: 83.3 nM protein preincubated 1 h at 37 °C with 10 µM ISO-1; pH 6.0, 25 °C
T1 construct: gene Mif; commercial recombinant (R&D systems); trimer

[2] = biological target: T2, Q586B2 (Trypanosoma brucei, UniProt Q586B2); experiment: as above; format: biochemical; settings: 83.3 nM protein; 50 mM potassium phosphate, 1 mM EDTA, pH 6.0, 25 °C
T2 construct: gene Tb06.4F7.140; full length, 115 aa, 13 kDa; N-terminal His6- and FLAG-tag (removable); codon-optimized, E. coli WK6
T2 sequence (Q586B2 entry or part of it): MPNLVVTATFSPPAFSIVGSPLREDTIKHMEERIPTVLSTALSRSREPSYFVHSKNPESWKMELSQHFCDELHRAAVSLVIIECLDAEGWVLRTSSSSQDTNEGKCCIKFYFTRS

T1 sequence (P34884 2-115): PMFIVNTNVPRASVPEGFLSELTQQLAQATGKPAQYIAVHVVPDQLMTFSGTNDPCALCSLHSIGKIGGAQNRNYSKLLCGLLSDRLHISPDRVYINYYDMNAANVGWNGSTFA

| Compound | % tautomerase activity with 10 μM ISO-1 [1] | % tautomerase activity of rmMIF [2] |
| --- | --- | --- |
| COC(=O)CC1CC(c2ccc(O)cc2)=NO1 (centres unmarked) [ISO-1] | contrast to MIF, the Q586B2 tautomerase activity was not inhibited by the small molecule ISO-1 |  |
| COC(=O)[C@@H]1CC2=CC(=O)C(=O)C=C2N1 [dopachrome methyl ester] |  | Q586B2 indeed exhibited a moderate tautomerase activity |
